The data set can be described thus: Measurement of acid dissociation constant (pKa) by titration in methanol. The data set is classed as physicochemical. The conditions noted are these: 25° C.; 1 part by weight acid in 99 parts methanol titrated with 0.1 mol/L methanolic potassium hydroxide; pH at half the titrant of first equivalence point. As to the method: At 25° C., 99 parts by weight of methanol was added to 1 part by weight of a carboxylic acid (A), and the contents were shaken and mixed until the carboxylic acid (A) was completely dissolved. A 0.1 mol/L methanolic potassium hydroxide solution was added dropwise to the resulting methanol solution of the carboxylic acid (A) to obtain a titration curve having inflection points, and among the inflection points, an inflection point at which the amount of titrant added was the smallest was defined as an equivalence point. The pH at half the amount of titrant added at the equivalence point on the obtained titration curve was read, and the pH was defined as the acid dissociation constant (pKa) of the carboxylic acid (A).
The pKa of the acid component (A′) was also measured in the same manner as the pKa of the carboxylic acid (A).

Here are results for 13 molecules from US20260279694A1, “ELECTROLYTE SOLUTION FOR HYBRID ELECTROLYTIC CAPACITORS AND HYBRID ELECTROLYTIC CAPACITOR” (SANYO CHEMICAL INDUSTRIES, LTD., priority 2023, published 2026).

In general, pKa refers to the negative logarithm of the acid dissociation constant. In the case of `O=C(O)c1ccc(C(=O)O)o1` [2,5-Furandicarboxylic acid, 2,5-furandicarboxylic acid, reference compound], the pKa came to 3.4.

Regarding `O=C(O)CCCCCCCC(=O)O` [Azelaic acid, azelaic acid, reference compound], the pKa was 6.7.

Turning to `OB(O)O` [Boric acid, boric acid, reference compound], the pKa was 9.8.

Regarding `O=C(O)c1ccccc1C(=O)OCCO` [Example A1, phthalic acid ethylene glycol monoester], the “Acid dissociation constant (pKa)” value is 3.8.

With `O=C(O)c1cc(C(=O)O)c(C(=O)OCCO)cc1C(=O)O` [Example A5, pyromellitic acid ethylene glycol monoester], the “Acid dissociation constant (pKa)” value is on record as 2.6.

In the case of `O=C(O)c1c(C(=O)O)c(C(=O)O)c(C(=O)OCCO)c(C(=O)O)c1C(=O)O` [Example A7, mellitic acid ethylene glycol monoester], the “Acid dissociation constant (pKa)” value came to 1.7.

As to `CCCCCCCCCCOC(=O)c1ccccc1C(=O)O` [Example A10, phthalic acid n-decanol monoester], the “Acid dissociation constant (pKa)” value was 3.9.

Turning to `O=C(O)c1ccccc1C(=O)OCCCCCCCCCCO` [Example A11, phthalic acid 1,10-decanediol monoester], the “Acid dissociation constant (pKa)” value came to 4.0.

`O=C(O)c1ccccc1C(=O)O` [Phthalic acid, phthalic acid, reference compound]: the pKa amounted to 3.9.

In the case of `O=C(O)c1cc(C(=O)O)c(C(=O)O)cc1C(=O)O` [Pyromellitic acid, pyromellitic acid, reference compound], the pKa was 2.8.

As to `O=C(O)c1ccc(C(=O)O)c(C(=O)O)c1` [Trimellitic acid, trimellitic acid, reference compound], the pKa was 3.5.

Consider “pyromellitic acid polyethylene glycol monoester [Example A6]”, for which the “Acid dissociation constant (pKa)” value was found to be 2.9.

Regarding “trimellitic acid polyethylene glycol monoester [Example A4]”, the “Acid dissociation constant (pKa)” value was found to be 3.6.
